Here are results for 23 compounds from PMC6832651, “Design, Synthesis and Investigation of the Potential Anti-Inflammatory Activity of 7-O-Amide Hesperetin Derivatives” (Molecules, 2019).

One data set relates to TNF-α. As to the kind of experiment: TNF-α level in medium of LPS-induced RAW264.7 cells (ELISA). Format: cell-based, mouse. To be noted: 10 μM compound (Figure 2A-C). From the text: (§1) When inflammation occurs, LPS-activated macrophages produce a variety of inflammatory cytokines, including TNF-α, interleukins (ILs), and nitric oxide (NO), which show a host shielding effect and also accelerate the occurrence of the inflammatory response during inflammatory situations. To evaluate the anti-inflammatory activity of hesperetin derivatives, the levels of TNF-α, IL-6 and IL-1β in the medium of LPS-induced macrophage cells were detected by enzyme linked immunosorbent assay (ELISA). […] Later, we will select one of them as lead compound and modify the structure at the 3’-OH, 5-OH and 4-carbonyl positions. […] Compounds 4d (MW = 401) and 4k (MW = 427) have similar structures and should have the same mechanism. Therefore, compound 4d with lower molecular weight was selected to further explore the mechanism(s) of the anti-inflammatory effect.
(§2) RAW264.7 cells (2 × 10^5 cells/well) were cultured in 24-well plate and pretreated with 10 μM of compounds for 1 h. And then stimulated with LPS, […], for 24 h. The cell culture supernatant were collected and the levels of TNF-α, IL-6 and IL-1β were determined using the ELISA kit (Elabscience, Wuhan, China). The optical density (OD) was measured at 540 nm. The results were analyzed using Origin Pro 8 (OriginLab, Northampton, MA, USA).

The next data set has as its system IL-1β. Kind of data set: IL-1β level in medium of LPS-induced RAW264.7 cells (ELISA). Format: cell-based, mouse. As to conditions: 10 μM compound (Figure 2A-C).
Source text: as §1, §2

The test system of data set [1] is LPS-induced NO production in RAW264.7 cells. Kind of data set: Inhibition of LPS-induced NO production (Griess reagent). Format: cell-based. As to conditions: Mus musculus, 10 μM compound, 1 h pretreatment, then LPS (1 μg/mL) 24 h, mean ± SD (n = 3).
Data set [2] has the same test system. Kind of data set: Inhibition of LPS-induced NO production (Griess reagent). Format: cell-based, mouse. As to conditions: for LPS-induced NO release: LPS-stimulated, result in words; for IC50: Mus musculus, 1 h pretreatment, then LPS 24 h, mean ± SD (n = 3). As to the method:
NO is an important inflammatory mediator and is overproduced and secreted out of mouse macrophages in response to bacterial lipopolysaccharide. To evaluate the anti-inflammatory activity of hesperetin derivatives, the secretion level of NO was detected in the medium of RAW264.7 cells after LPS stimulated with Griess reagent. Before the cells were treated with LPS (1 μg/mL) for 24 h, pretreatment with the compounds for 1 hour. […] All hesperetin derivatives could decrease the release of NO induced by LPS. […] While extended the length of the amide side chain and the inhibitory activities increased (4d > 4c > 4a; 4e > 4b). […] On the other hand, the cavity was medium-sized, large enough to accommodate cyclopentyl and propyl groups, but not enough to accommodate cyclohexyl and butyl ones (4a < 4b < 4d > 4f; 4k > 4l).
Nitrite levels were determined using the Griess method for NO has a short half-life and is oxidized to stable nitrite. RAW 264.7 cells were plated at a density of 2 × 10^5 per well in a 24-well culture plate and incubated in a 37 °C humidified incubator (5% CO2). After overnight Cultured, discarded the supernatant, added pre-configured compounds of different concentrations to the 24-well plate, and added the same one-thousandth of the DMSO solvent as the control to the experimental group for 1 h. Then LPS was added to experimental and model groups at a concentration of […] for 24 h compared to vehicle control. Following treatment, media was collected and centrifuged at 2000 rpm for 5 min to remove cellular debris. The medium from treated cells was removed and placed into a 96-well plate (50 µL per well) and was measured in culture supernatant using Griess reagent at 540 nm. The IC50 values of compounds were calculated by SPSS23.
(In general: Griess reagent forms a coloured azo dye with nitrite.)

The next data set concerns IL-6. As to the kind of experiment: IL-6 level in medium of LPS-induced RAW264.7 cells (ELISA). Format: cell-based, mouse. To be noted: 10 μM compound (Figure 2A-C).
Source text: as §1, §2
For orientation: In an ELISA, binding on a coated surface is turned into a signal by an enzyme label.

One may read the inhibition as the change of the read-out against control, counted positive when it falls. For orientation: melting point means the temperature, or range, at which the solid turns liquid. In general, IC50 refers to the concentration that inhibits the measured activity by half. `COc1ccc([C@@H]2CC(=O)c3c(O)cc(OCC(=O)NC(C)C)cc3O2)cc1O` [Compound 4e, 7-O-(2-(Isopropylamino)-2-oxoethyl)hesperetin] gave a melting point of 157.6 to 160.4 °C. Moreover, the “inhibitory effect on TNF-α production” value with TNF-α was “greater inhibitory effects than indomethacin (Ind) and celecoxib (Cel)”. The “inhibitory effect on IL-1β production” value in the data set with IL-1β was “greater inhibitory effects than indomethacin (Ind) and celecoxib (Cel)”. For the same compound, the inhibition at 10 µM in data set [1] amounted to 27.1 ± 5.88%. Further, in data set [2], the “LPS-induced NO release” value is “significantly alleviated the increase of LPS-induced NO release” and the IC50 amounted to 26.1 ± 1.21 µM. For the same compound, the “inhibitory effect on IL-6 production” value in the data set with IL-6 is “greater inhibitory effects than indomethacin (Ind) and celecoxib (Cel)”.
The compound `COc1ccc([C@@H]2CC(=O)c3c(O)cc(OCC(=O)N4CCCCC4)cc3O2)cc1O` [Compound 6a, 7-O-(2-(piperidin-1-yl)-2-oxoethyl)hesperetin] registered a melting point of 165.4 to 167.9 °C. In addition, in data set [1], the inhibition at 10 µM is 30.2 ± 4.67%. In data set [2], the “LPS-induced NO release” value is given as “significantly alleviated the increase of LPS-induced NO release” and the concentration for half-maximal inhibition (IC50) was 23.4 ± 1.64 µM.
For the compound `Cc1ccc(-c2cc(C(F)(F)F)nn2-c2ccc(S(N)(=O)=O)cc2)cc1` [Cel, celecoxib, reference compound], in data set [1], the inhibition at 10 µM was 14.5 ± 3.61%. Moreover, the IC50 in data set [2] is 26.4 ± 0.46 µM.
`COc1ccc([C@@H]2CC(=O)c3c(O)cc(OCC(=O)N4CCSC4)cc3O2)cc1O` [Compound 5b, 7-O-(2-(Thiazolidin-3-yl)-2-oxoethyl)hesperetin] yielded a melting point of 152.4 to 154.7 °C. For the same compound, the inhibition at 10 µM in data set [1] worked out at 22.7 ± 5.71%. For the same compound, the IC50 in data set [2] worked out at 30 ± 0.43 µM.
Taken in the same sequence, the figures for `CNC(=O)COc1cc(O)c2c(c1)O[C@H](c1ccc(OC)c(O)c1)CC2=O` [Compound 4a, 7-O-(2-(Methylamino)-2-oxoethyl)hesperetin] were 179.8 to 182.7 °C, 16 ± 0.06% and 38.5 ± 2 µM.
`CCCCNC(=O)COc1cc(O)c2c(c1)O[C@H](c1ccc(OC)c(O)c1)CC2=O` [Compound 4f, 7-O-(2-(Butylamino)-2-oxoethyl)hesperetin] gave a melting point of 136.9 to 138.4 °C. Further, in data set [1], the inhibition at 10 µM came out at 18 ± 0.82%. The IC50 in data set [2] was 29.7 ± 3.06 µM.
The compound `COc1ccc([C@@H]2CC(=O)c3c(O)cc(OCC(=O)NC(C)(C)C)cc3O2)cc1O` [Compound 4h, 7-O-(2-(tert-Butylamino)-2-oxoethyl)hesperetin] came in with a melting point of 140.5 to 142.4 °C. Further, the inhibition at 10 µM in data set [1] is 17.5 ± 1.33%. In data set [2], the IC50 amounted to 42 ± 6.15 µM.
`CCN1CCN(C(=O)COc2cc(O)c3c(c2)O[C@H](c2ccc(OC)c(O)c2)CC3=O)CC1` [Compound 6e, 7-O-(2-(4-Ethylpiperazin-1-yl)-2-oxoethyl)hesperetin]: the melting point was in the range of 160.7 to 162.9 °C.
For `COc1ccc([C@@H]2CC(=O)c3c(O)cc(OCC(=O)NCCN4CCOCC4)cc3O2)cc1O` [Compound 7c, 7-O-(2-((2-Mmorpholinoethyl)amino)-2-oxoethyl) hesperetin], the melting point was in the range of 160.7 to 162.9 °C. In addition, the inhibition at 10 µM in data set [1] worked out at 18.4 ± 4.55%. Besides, the IC50 in data set [2] worked out at 42.4 ± 2.06 µM.
Consider `COc1ccc([C@@H]2CC(=O)c3c(O)cc(OCC(=O)NC4CCCCC4)cc3O2)cc1O` [Compound 4l, 7-O-(2-(Cyclohexylamino)-2-oxoethyl)hesperetin], for which the melting point lay in the range of 181.9 to 184.1 °C. Besides, the inhibition at 10 µM in data set [1] is 20.3 ± 2%. In addition, the IC50 in data set [2] was found to be 33.3 ± 3.3 µM.
With `COc1ccc2c(c1)c(CC(=O)O)c(C)n2C(=O)c1ccc(Cl)cc1` [Ind, indomethacin, reference compound], the inhibition at 10 µM in data set [1] is 12.9 ± 3.09%. The IC50 in data set [2] was 35.3 ± 8.07 µM.
Compound `COc1ccc([C@@H]2CC(=O)c3c(O)cc(OCC(=O)N4CCN(C)CC4)cc3O2)cc1O` [Compound 6d, 7-O-(2-(4-Methylpiperazin-1-yl)-2-oxoethyl)hesperetin] displayed a melting point of 167.3 to 170.1 °C.
`COc1ccc([C@@H]2CC(=O)c3c(O)cc(OCC(=O)N4CCOCC4)cc3O2)cc1O` [Compound 6f, 7-O-(2-Morpholino-2-oxoethyl)hesperetin] had a melting point of 188.7 to 189.3 °C. For the same compound, the inhibition at 10 µM in data set [1] stood at 21 ± 0.31%. Also, in data set [2], the IC50 was determined as 32.6 ± 1.51 µM.
For `COc1ccc([C@@H]2CC(=O)c3c(O)cc(OCC(=O)N(C)C)cc3O2)cc1O` [Compound 4c, 7-O-(2-(Dimethylamino)-2-oxoethyl)hesperetin], in that order: 164.1 to 165.8 °C, 13.5 ± 1.63% and 32.5 ± 2.46 µM.
For `COc1ccc([C@@H]2CC(=O)c3c(O)cc(OCC(=O)NC4CC4)cc3O2)cc1O` [Compound 4j, 7-O-(2-(Cyclopropylamino)-2-oxoethyl)hesperetin], in that order: 190.8 to 193.1 °C, 9.57 ± 5.53% and 41.7 ± 2.79 µM.
Taken in the same sequence, the figures for `COc1ccc([C@@H]2CC(=O)c3c(O)cc(OCC(=O)N4CCCCC4CO)cc3O2)cc1O` (stereo partly drawn) [Compound 6c, 7-O-(2-(2-(Hydroxymethyl)piperidin-1-yl)-2-oxoethyl)hesperetin] were 123.2 to 125.8 °C, 9.1 ± 3.67% and 40.6 ± 5.56 µM.
Compound `CCN(CC)C(=O)COc1cc(O)c2c(c1)O[C@H](c1ccc(OC)c(O)c1)CC2=O` [Compound 4i, 7-O-(2-(Diethylamino)-2-oxoethyl)hesperetin] gave a melting point of 146.3 to 147.8 °C. In data set [1], the inhibition at 10 µM came out at 17.5 ± 2.33%. Besides, the IC50 in data set [2] stood at 30.5 ± 1.66 µM.
On to `COc1ccc([C@@H]2CC(=O)c3c(O)cc(OCC(=O)N4CCCC4)cc3O2)cc1O` [Compound 5a, 7-O-(2-(Pyrrolidin-1-yl)-2-oxoethyl)hesperetin], for which the melting point is 127.1 to 130.5 °C. Further, in data set [1], the inhibition at 10 µM was found to be 18.9 ± 4.02%. For the same compound, the IC50 in data set [2] was determined as 36.2 ± 5.83 µM.
For `COc1ccc([C@@H]2CC(=O)c3c(O)cc(OCC(=O)N4CCCC(CO)C4)cc3O2)cc1O` (stereo partly drawn) [Compound 6b, 7-O-(2-(3-(Hydroxymethyl)piperidin-1-yl)-2-oxoethyl)hesperetin], in that order: 168.6 to 171.8 °C, 19.3 ± 1.94% and 31.1 ± 2.93 µM.
The compound `CCNC(=O)COc1cc(O)c2c(c1)O[C@H](c1ccc(OC)c(O)c1)CC2=O` [Compound 4b, 7-O-(2-(Ethylamino)-2-oxoethyl)hesperetin] displayed a melting point of 171.2 to 173.6 °C. In addition, the inhibition at 10 µM in data set [1] stood at 21.5 ± 1.29%. Also, in data set [2], the IC50 amounted to 29.9 ± 3.4 µM.
For `COc1ccc([C@@H]2CC(=O)c3c(O)cc(OCC(=O)NCCO)cc3O2)cc1O` [Compound 7a, 7-O-(2-((2-Hydroxyethyl)amino)-2-oxoethyl)hesperetin], in that order: 183.8 to 185.7 °C, 15 ± 1.99% and 28.4 ± 5.33 µM.
As to `COc1ccc([C@@H]2CC(=O)c3c(O)cc(OCC(=O)NCCN(C)C)cc3O2)cc1O` [Compound 7b, 7-O-(2-((2-(Dimethylamino)ethyl)amino)-2-oxoethyl)hesperetin], the melting point is 137.1 to 139.4 °C. The inhibition at 10 µM in data set [1] turned out to be 12.4 ± 0.67%. The IC50 in data set [2] stood at 92.5 ± 33.7 µM.
As to `COc1ccc([C@@H]2CC(=O)c3c(O)cc(OCC(=O)NCC(C)C)cc3O2)cc1O` [Compound 4g, 7-O-(2-(Isobutylamino)-2-oxoethyl)hesperetin], the melting point fell in the range of 136.9 to 139.4 °C. The inhibition at 10 µM in data set [1] was 23.5 ± 0.74%. Besides, in data set [2], the “LPS-induced NO release” value is “significantly alleviated the increase of LPS-induced NO release” and the IC50 was 24.59 ± 0.22 µM.
